PMC8348310, “Antioxidants Isolated from Elaeagnus umbellata (Thunb.) Protect against Bacterial Infections and Diabetes in Streptozotocin-Induced Diabetic Rat Model” (Molecules, 2021)

What was measured:
Format in all cases: in vivo, Sprague Dawley adult albino rats
[1] = system: STZ-induced diabetic rats; assay: STZ-induced diabetic rat model: fasting blood glucose and body weight
Description: Sprague Dawley adult albino rats (body weight range = 170–200 g) were used in in vivo studies. The animals were purchased from Rifah Institute of Pharmaceutical Sciences Islamabad. The entire animals were given food and fresh water ad libitum. The animals were adjusted at room temperature around 22–25 °C. The animals were housed three rats per cage and maintained with light/dark cycle of about 12 h. All the in vivo procedures were carried out according to the ARRIVE guidelines and approval was taken from the Departmental Animal Ethical Committee (DAEC/2019/1), University of Malakand.
(§1) All the animals were separated into nine groups having eight animals each (Table 1). In the current investigational study STZ-induced diabetic model was used to evaluate the anti-hyperglycemic and anti-hyperlipidemic activity of isolated compound morin in chronic multiple dose experiment. All the animals were treated with their respective treatments for 21 days starting daily at 09:00 am. The fasting blood glucose levels were determined at 0, 4th, 7th, 10th, 15th, and 21st days with glucometer from the tail vein. Changes in the body weight were recorded for untreated control, diabetic, and treated groups in fasting condition from day 1 to day 21 of experimental period and are presented as % increase in body weight.
(§2) According to the reported protocol diabetes was induced into Sprague Dawley adult albino rats by intraperitoneal injection of STZ (50 mg/kg body weight). Blood samples were collected from the tail vein through glucometer strips by means of SD glucometer and the level of blood glucose was measured 72 h after STZ injection. Normal control groups were given normal saline (8 mL/kg, p.o.) as a vehicle, while isolated compound morin to the treatment groups from 3 days after STZ administration for 3 weeks. Animals with blood glucose levels higher than 300 mg/dL were considered diabetic. During the experiment the blood glucose level and body weights were measured.

[2] = system: STZ-induced diabetic rats; assay: STZ-induced diabetic rat model: serum biochemical parameters (liver, renal, lipid profile, HbA1c)
Description: as §1, §2
On 21st day of in vivo antidiabetic activity, all the animals were anesthetized by intraperitoneal (IP) injection of pentobarbital sodium (35 mg/kg body weight) and euthanized by means of cervical decapitation according to the ARRIVE guidelines. Blood samples were collected by cardiac puncture and transferred to EDTA containing tubes. Blood was centrifuged at 3500 rpm for 10 min for the separation of serum. Biochemical parameters like serum alkaline phosphatase (ALP), serum glutamate pyruvate transaminase (SGPT), serum glutamate oxaloacetate transaminase (SGOT) and lipid parameters like total cholesterol (TC), triglycerides (TG), low-density lipoproteins (LDL), high-density lipoprotein (HDL), and serum creatinine in serum were assessed by using Biochemistry analyzer (PS-520; Shenzhen Procan Electronics-China) using diagnostic kits (Reactivos, GPL Barcelona, Spain). According to the reported protocol an enzyme-linked immunosorbent assay (ELISA) kit was used to evaluate the level of glycosylated hemoglobin (HbA1c).

[3] = system: STZ-induced diabetic rats; assay: Antioxidant enzymes and oxidative stress markers in pancreas tissue homogenates of STZ-induced diabetic rats
Description: The pancreas tissue (1 g) was isolated from Sprague Dawley rats, washed with cold saline solution and blotted dried. A weighed portion of the pancreas tissue was homogenized on ice and then centrifuged for 15 min at 3500 rpm at 4 °C. The supernatant was then taken and stored at −20 °C until assessed for different enzymes.
The activities of reduced glutathione (GSH) level were determined in the pancreatic tissues according to the previously established method. About 300 µL of tissue supernatant was centrifuged for 5 min at 3500 rpm following deproteinization with 300 µL of 10% trichloroacetic acid. In total, 200 µL of the resulting supernatant of each sample (at concentrations 2, 5, 10, 15, 30, and 50 µg/mL) was mixed with 50 µL of Ellman’s reagent (5,5′-dithiobis-(2-nitro-benzoic acid)) (DTNB) then centrifuged at 3000 rpm for 15 min. The absorbance was recorded at 412 nm. A series of standards treated in a similar way were also run to determine the glutathione content. The amount of glutathione is expressed as µmole/mg of tissue protein.
. […] The pink colored TBARS was measured photometrically at 532 nm and tissue MDA was determined from a standard curve and is expressed as nmole/mg of tissue protein. […]

[4] = glibenclamide 0.5 mg/kg, morin 15, 30, and 50 mg/kg, vs diabetic control rats
[5] = glibenclamide 5 mg/kg, morin 15, 30, and 50 mg/kg body weight, serum, day 21, vs diabetic control

O=c1c(O)c(-c2ccc(O)cc2O)oc2cc(O)cc(O)c12 [Morin, 2-(2,4-Dihydroxyphenyl)-3,5,7-trihydroxychromen-4-one]
body weight gain ([1]; morin 10 mg/kg body weight): significant (p < 0.01) increases | blood glucose level ([1]; morin 2 and 5 mg/kg body weight): slowly reduce blood glucose level | glucose level ([1]; morin 10, 15, 30, and 50 mg/kg body weight, compared to the diabetic control group): comparable decline in glucose level | body weight gain ([1]; morin 15, 30, and 50 mg/kg body weight): significant (p < 0.001) improvement | blood glucose level ([1]; morin oral 30, 15, 50 mg/kg body weight, vs diabetic control): significant (p ˂ 0.01) decrease | HDL cholesterol [2, 4]: significantly increased (p < 0.01) | HbA1c level [2, 4]: significant decrease (p < 0.01; p < 0.001) | LDL level [2, 4]: significant decrease (p < 0.01; p < 0.001) | TC level [2, 4]: significant decrease (p < 0.01; p < 0.001) | TG level [2, 4]: significant decrease (p < 0.01; p < 0.001) | serum creatinine level ([2]; glibenclamide 5 mg/kg, morin 15, 30, and 50 mg/kg body weight, day 21, vs diabetic control): significantly reduced (p < 0.01; p < 0.001) | ALP level [2, 5]: significantly reduced (p < 0.01; p < 0.001) | SGOT level [2, 5]: significantly reduced (p < 0.01; p < 0.001) | SGPT level [2, 5]: significantly reduced (p < 0.01; p < 0.001) | MDA level (lipid peroxidation) ([3]; morin 2, 5, 10, 15, 30, and 50 µg/kg body weight, pancreas tissue homogenates): significantly (p < 0.05, p < 0.01, p < 0.001) decreased | GPx activity ([3]; morin, pancreatic tissues homogenates of diabetic rats): significantly increased
